Reference: patent US12227501B2, “3-amino-2-[2-(acylamino)pyridin-4-yl]-1,5,6,7-tetrahydro-4h-pyrrolo[3,2-c]pyridin-4-one as CSNK1 inhibitors” (Bayer Aktiengesellschaft, priority 2019, dated 2025)
pIC50: −log10 of the molar value. Values joined by “and” are separate entries in the source; they are usually repeats but may differ in a detail not shown here. Equal values may be shown once. Where a name gives a salt, the structure may show the parent alone. Read-outs that look alike come from different tables or passages of the source.

Experiments:
Assay type in all cases: biochemical
[1] = biological target: wild-type Epidermal Growth Factor Receptor (EGFR) (Homo sapiens (Human), UniProt P00533); assay: WT-EGFR Kinase Assay (TR-FRET, 2 mM ATP)
Chain of wild-type Epidermal Growth Factor Receptor (EGFR) (P00533 669-1210): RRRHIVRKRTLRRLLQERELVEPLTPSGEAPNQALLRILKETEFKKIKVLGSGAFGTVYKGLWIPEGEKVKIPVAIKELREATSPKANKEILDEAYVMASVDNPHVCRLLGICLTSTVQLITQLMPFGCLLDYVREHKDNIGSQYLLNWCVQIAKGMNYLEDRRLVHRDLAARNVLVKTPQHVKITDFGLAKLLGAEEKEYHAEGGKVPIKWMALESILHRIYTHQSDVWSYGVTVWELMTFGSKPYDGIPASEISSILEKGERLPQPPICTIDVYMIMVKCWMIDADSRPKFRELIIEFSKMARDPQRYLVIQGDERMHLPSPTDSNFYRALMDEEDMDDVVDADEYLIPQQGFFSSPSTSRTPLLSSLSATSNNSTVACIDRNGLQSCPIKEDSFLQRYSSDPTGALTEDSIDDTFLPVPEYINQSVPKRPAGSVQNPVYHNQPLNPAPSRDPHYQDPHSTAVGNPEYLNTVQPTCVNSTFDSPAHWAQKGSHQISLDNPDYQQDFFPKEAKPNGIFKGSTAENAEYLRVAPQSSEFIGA

human CSNK1A1 [2] = biological target: T1, human CSNK1A1 (Homo sapiens (Human), UniProt P48729); assay: CSNK1A1 Assay 2 (ADP-Glo, 1 μM ATP); conditions: substrate biotin-Ahx-KRRRAL-pS-VASLPGL, read-out: CSNK1A1 Assay 2 IC50 [mol/l] (median)
T1 sequence (P48729 whole entry): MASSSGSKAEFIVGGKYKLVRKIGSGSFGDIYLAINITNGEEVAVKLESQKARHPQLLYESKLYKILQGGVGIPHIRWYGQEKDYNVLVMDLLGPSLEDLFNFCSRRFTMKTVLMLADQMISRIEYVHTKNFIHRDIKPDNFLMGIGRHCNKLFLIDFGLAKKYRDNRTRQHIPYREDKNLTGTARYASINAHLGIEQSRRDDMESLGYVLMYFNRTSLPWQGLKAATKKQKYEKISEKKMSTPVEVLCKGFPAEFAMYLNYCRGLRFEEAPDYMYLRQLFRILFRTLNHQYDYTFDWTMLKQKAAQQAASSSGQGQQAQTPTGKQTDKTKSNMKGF
Description: CSNK1A1-inhibitory activity of compounds of the present invention in presence of 1 μM adenosine-tri-phosphate (ATP) was quantified employing the CSNK1A1 assay as described in the following paragraphs. In essence, the enzyme activity is measured by quantification of the adenosine-di-phosphate (ADP), which is generated as a co-product of the enzyme reaction, via the “ADP-Glo™ Kinase Assay” kit from the company Promega. This detection system works as follows: In a first step the ATP not consumed in the kinase reaction is quantitatively converted to cAMP employing an adenylate cyclase (“ADP-Glo-reagent”), then the adenylate cyclase is stopped and the ADP generated in the kinase reaction converted to ATP which generates in a luciferase-based reaction a glow-luminescence signal (“Kinase Detection Reagent”). Recombinant fusion protein of N-terminal Glutathion-S-Transferase (GST) and full-length human CSNK1A1, expressed by baculovirus infected insect cells and purified via Glutathion affinity chromatography, was purchased from Life Technologies (product no. PV4174) and used as enzyme. As substrate for the kinase reaction the biotinylated peptide biotin-Ahx-KRRRAL-pS-VASLPGL (C-terminus in amide form) was used which can be purchased e.g. from the company Biosyntan (Berlin-Buch, Germany).
For the assay 50 nl of a 100 fold concentrated solution of the test compound in DMSO was pipetted into a white 1536-well microtiter plate (Greiner Bio-One, Frickenhausen, Germany), 2 μL of a solution of CSNK1A1 in aqueous assay buffer [50 mM HEPES pH 7.5, 10% (v/v) glycerol, 10 mM MgCl2, 50 mM NaCl, 1 mM dithiothreitol, 0.01% (w/v) bovine serum albumin, 0.01% (v/v) Triton X-100] were added and the mixture was incubated for 15 min at 22° C. to allow pre-binding of the test compounds to the enzyme before the start of the kinase reaction. […] The concentration of CSNK1A1 was adjusted depending of the activity of the enzyme lot and was chosen appropriate to have the assay in the linear range, a typical concentrations are about 0.0375 ng/μL. The reaction was stopped by the addition of 2.5 μL of “ADP-Glo-reagent” (1:1.5 fold diluted with water) and the resulting mixture was incubated at 22° C. for 1 h to convert the ATP not consumed in the kinase reaction completely […]. Subsequently 2.5 μL of the “kinase detection reagent” (1.2 fold more concentrated than recommended by the producer) were added, the resulting mixture was incubated at 22° C. for 1 h and then the luminescence measured with a suitable measurement instrument (e.g. Viewlux™ from Perkin-Elmer). The amount of emitted light was taken as a measure for the amount of ADP generated and thereby for the activity of the CSNK1A1.

human CSNK1A1 [3] = biological target: T1, human CSNK1A1; assay: CSNK1A1 High ATP Assay (ADP-Glo, 1 mM ATP); conditions: read-out: CSNK1A1 high ATP assay IC50 [mol/l] (median)
Description: CSNK1A1-inhibitory activity of compounds of the present invention in presence of 1 mM adenosine-tri-phosphate (ATP) was quantified employing the CSNK1A1-high-ATP-assay as described in the following paragraphs. In essence, the enzyme activity is measured by quantification of the adenosine-di-phosphate (ADP), which is generated as a co-product of the enzyme reaction, via the “ADP-Glo™ Kinase Assay” kit from the company Promega. This detection system works as follows: In a first step the ATP not consumed in the kinase reaction is quantitatively converted to cAMP employing an adenylate cyclase (“ADP-Glo-reagent”), then the adenylate cyclase is stopped and the ADP generated in the kinase reaction converted to ATP which generates in a luciferase-based reaction a glow-luminescence signal (“Kinase Detection Reagent”).
Recombinant fusion protein of N-terminal Glutathion-S-Transferase (GST) and full-length human CSNK1A1, expressed by baculovirus infected insect cells and purified via Glutathion affinity chromatography, was purchased from Life Technologies (product no. PV4174) and used as enzyme. As substrate for the kinase reaction the biotinylated peptide biotin-Ahx-KRRRAL-pS-VASLPGL (C-terminus in amide form) was used which can be purchased e.g. from the company Biosyntan (Berlin-Buch, Germany).
For the assay 50 nl of a 100 fold concentrated solution of the test compound in DMSO was pipetted into a white low volume 384-well microtiter plate (Greiner Bio-One, Frickenhausen, Germany), 2 μL of a solution of CSNK1A1 in aqueous assay buffer [50 mM HEPES pH 7.5, 10% (v/v) glycerol, 10 mM MgCl2, 50 mM NaCl, 1 mM dithiothreitol, 0.01% (w/v) bovine serum albumin, 0.01% (v/v) Triton X-100] were added and the mixture was incubated for 15 min at 22° C. to allow pre-binding of the test compounds to the enzyme before the start of the kinase reaction. […] The concentration of CSNK1A1 was adjusted depending of the activity of the enzyme lot and was chosen appropriate to have the assay in the linear range, a typical concentration is about 0.4 ng/μL. The reaction was stopped by the addition of 2.5 μL of “ADP-Glo-reagent” (1:1.5 fold diluted with water) and the resulting mixture was incubated at 22° C. for 1 h to convert the ATP not consumed in the kinase reaction completely […]. Subsequently 2.5 μL of the “kinase detection reagent” (1.2 fold more concentrated than recommended by the producer) were added, the resulting mixture was incubated at 22° C. for 1 h and then the luminescence measured with a suitable measurement instrument (e.g. Viewlux™ from Perkin-Elmer). The amount of emitted light was taken as a measure for the amount of ADP generated and thereby for the activity of the CSNK1A1.

human CSNK1D = human CSNK1D (Homo sapiens (Human), UniProt P48730); assay: CSNK1D Assay (ADP-Glo, 1 μM ATP); conditions: read-out: CSNK1D IC50 [mol/l] (median)
Chain of human CSNK1D (P48730 whole entry): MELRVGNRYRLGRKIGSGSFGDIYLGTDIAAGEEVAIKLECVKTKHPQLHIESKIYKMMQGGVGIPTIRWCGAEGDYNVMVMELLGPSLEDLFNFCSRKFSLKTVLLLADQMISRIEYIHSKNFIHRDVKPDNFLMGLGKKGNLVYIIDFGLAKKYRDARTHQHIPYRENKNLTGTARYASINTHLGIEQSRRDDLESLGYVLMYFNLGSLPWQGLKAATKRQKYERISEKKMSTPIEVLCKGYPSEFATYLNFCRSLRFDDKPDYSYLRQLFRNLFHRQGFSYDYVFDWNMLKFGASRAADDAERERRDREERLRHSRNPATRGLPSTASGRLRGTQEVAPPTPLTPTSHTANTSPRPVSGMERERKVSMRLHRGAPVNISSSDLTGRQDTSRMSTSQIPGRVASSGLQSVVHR
Description: CSNK1 D-inhibitory activity of compounds of the present invention in presence of 1 μM adenosine-tri-phosphate (ATP) was quantified employing the CSNK1D assay as described in the following paragraphs. In essence, the enzyme activity is measured by quantification of the adenosine-di-phosphate (ADP), which is generated as a co-product of the enzyme reaction, via the “ADP-Glo™ Kinase Assay” kit from the company Promega. This detection system works as follows: In a first step the ATP not consumed in the kinase reaction is quantitatively converted to cAMP employing an adenylate cyclase (“ADP-Glo-reagent”), then the adenylate cyclase is stopped and the ADP generated in the kinase reaction converted to ATP which generates in a luciferase-based reaction a glow-luminescence signal (“Kinase Detection Reagent”). Recombinant fusion protein of N-terminal Glutathion-S-Transferase (GST) and full-length human CSNK1D, expressed by baculovirus infected insect cells and purified via Glutathion affinity chromatography, was purchased from Life Technologies (product no. PV3665) and used as enzyme. As substrate for the kinase reaction the biotinylated peptide Btn-Ahx-[…] (C-terminus in amide form) was used which can be purchased e.g. from the company Biosyntan (Berlin-Buch, Germany).
For the assay 50 nl of a 100 fold concentrated solution of the test compound in DMSO was pipetted into a white 1536-well microtiter plate (Greiner Bio-One, Frickenhausen, Germany), 2 μL of a solution of CSNK1D in aqueous assay buffer [50 mM HEPES pH 7.5, 10% (v/v) glycerol, 10 mM MgCl2, 50 mM NaCl, 1 mM dithiothreitol, 0.01% (w/v) bovine serum albumin, 0.01% (v/v) Triton X-100] were added and the mixture was incubated for 15 min at 22° C. to allow pre-binding of the test compounds to the enzyme before the start of the kinase reaction. […] The concentration of CSNK1 D was adjusted depending of the activity of the enzyme lot and was chosen appropriate to have the assay in the linear range, a typical concentration is about 0.5 ng/μL. The reaction was stopped by the addition of 2.5 μL of “ADP-Glo-reagent” (1:1.5 fold diluted with water) and the resulting mixture was incubated at 22° C. for 1 h to convert the ATP not consumed in the kinase reaction completely […]. Subsequently 2.5 μL of the “kinase detection reagent” (1.2 fold more concentrated than recommended by the producer) were added, the resulting mixture was incubated at 22° C. for 1 h and then the luminescence measured with a suitable measurement instrument (e.g. Viewlux™ from Perkin-Elmer). The amount of emitted light was taken as a measure for the amount of ADP generated and thereby for the activity of the CSNK1D.

[4] = EGFR Wildtyp- 2 mM ATP IC50 [mol/l] (median)
[5] = read-out: EGFR Wildtyp- 2 mM ATP IC50 [mol/l] (median)

Compound	pIC50 [1, 4]	pIC50 (human CSNK1A1 [2])	pIC50 (human CSNK1A1 [3])	pIC50 (human CSNK1D)	pIC50 [1, 5]
CN1CCc2[nH]c(-c3ccnc(NC(=O)C(CC(F)F)c4ccccc4)c3)c(Nc3ccccc3)c2C1=O (single isomer, unassigned) [Example 35, N-[4-(3-anilino-5-methyl-4-oxo-4,5,6,7-tetrahydro-1H-pyrrolo[3,2-c]pyridin-2-yl)pyridin-2-yl]-4,4-difluoro-2-phenylbutanamide]	4.83	7.69	6.15	–	–
CC(C(=O)Nc1cc(-c2[nH]c3c(c2Nc2ccccc2)C(=O)NC(C)(C)C3)ccn1)c1ccc(F)cc1 (single isomer, unassigned; (+)) [Example 40, (+)-N-[4-(3-anilino-6,6-dimethyl-4-oxo-4,5,6,7-tetrahydro-1H-pyrrolo[3,2-c]pyridin-2-yl)pyridin-2-yl]-2-(4-fluorophenyl)propanamide]	–	8.34	7.29	7.98	–
CN1CCc2[nH]c(-c3ccnc(NC(=O)C(CCN4CCOCC4)c4ccccc4)c3)c(Nc3ccccc3)c2C1=O (single isomer, unassigned) [Example 32, N-[4-(3-anilino-5-methyl-4-oxo-4,5,6,7-tetrahydro-1H-pyrrolo[3,2-c]pyridin-2-yl)pyridin-2-yl]-4-(morpholin-4-yl)-2-phenylbutanamide]	–	7.14	5.34	–	< 4.70
CN1C(=O)c2c([nH]c(-c3ccnc(NC(=O)C(CC(F)F)c4ccc(F)cc4)c3)c2Nc2ccccc2)CC12CCC2 (single isomer, unassigned; enantiomer 1) [Example 161, (−)-N-[4-(3′-anilino-5′-methyl-4′-oxo-1′,4′,5′,7′-tetrahydrospiro[cyclobutane-1,6′-pyrrolo[3,2-c]pyridin]-2′-yl)pyridin-2-yl]-4,4-difluoro-2-(4-fluorophenyl)butanamide (Enantiomer 1)]	< 4.70	–	< 4.70 and 4.72 and 4.97 and 4.84	6.44	–
CN1CCc2[nH]c(-c3ccnc(NC(=O)C(CC(F)F)c4ccccc4)c3)c(Nc3ccccc3)c2C1=O (single isomer, unassigned) [Example 34, N-[4-(3-anilino-5-methyl-4-oxo-4,5,6,7-tetrahydro-1H-pyrrolo[3,2-c]pyridin-2-yl)pyridin-2-yl]-4,4-difluoro-2-phenylbutanamide]	< 4.70	8.57	7.78	–	–
CN(C)CCC(C(=O)Nc1cc(-c2[nH]c3c(c2Nc2ccccc2)C(=O)N(C)CC3)ccn1)c1ccccc1 (centres unmarked) [Example 38, N-[4-(3-anilino-5-methyl-4-oxo-4,5,6,7-tetrahydro-1H-pyrrolo[3,2-c]pyridin-2-yl)pyridin-2-yl]-4-(dimethylamino)-2-phenylbutanamide]	–	7.84	5.89	–	5.17
CC1(C)Cc2[nH]c(-c3ccnc(NC(=O)Cc4ccc(F)cc4)c3)c(Nc3cccc(F)n3)c2C(=O)N1 [Example 127, 2-(4-fluorophenyl)-N-(4-{3-[(6-fluoropyridin-2-yl)amino]-6,6-dimethyl-4-oxo-4,5,6,7-tetrahydro-1H-pyrrolo[3,2-c]pyridin-2-yl}pyridin-2-yl)acetamide-1,1′,1″-phosphoryltripyrrolidine salt]	4.77	–	–	–	–
CN1CCc2[nH]c(-c3ccnc(NC(=O)Cc4ccc(N(C)C)cc4)c3)c(Nc3ccccc3)c2C1=O [Example 84, N-[4-(3-anilino-5-methyl-4-oxo-4,5,6,7-tetrahydro-1H-pyrrolo[3,2-c]pyridin-2-yl)pyridin-2-yl]-2-[4-(dimethylamino)phenyl]acetamide]	–	8.58	6.66	8.07	–
Cc1ccccc1Nc1c(-c2ccnc(NC(=O)Cc3ccc(F)cc3)c2)[nH]c2c1C(=O)NC(C)(C)C2 [Example 113, N-{4-[6,6-dimethyl-3-(2-methylanilino)-4-oxo-4,5,6,7-tetrahydro-1H-pyrrolo[3,2-c]pyridin-2-yl]pyridin-2-yl}-2-(4-fluorophenyl)acetamide]	< 5.24	–	–	–	–
CN1CCc2[nH]c(-c3ccnc(NC(=O)C(CCN4CCOCC4)c4ccccc4)c3)c(Nc3ccccc3)c2C1=O (single isomer, unassigned) [Example 31, N-[4-(3-anilino-5-methyl-4-oxo-4,5,6,7-tetrahydro-1H-pyrrolo[3,2-c]pyridin-2-yl)pyridin-2-yl]-4-(morpholin-4-yl)-2-phenylbutanamide]	< 4.70	8.41	6.60	–	–
